Reference: US9499486B2, “Kinase inhibitor” (RESPIVERT LIMITED, priority 2014, dated 2016)
Converted amounts (≈) assume the structure as drawn. Read-outs that look alike come from different tables or passages of the source.

Experiments:
[1] = Solubility in fasted-state simulated colonic fluid (FaSSCoF); type: physicochemical
Experimental: The solubility of the compound of the invention in FaSSCoF at pH 6.5 is determined using a modification of a previously-reported procedure (Vertzoni, M., et al. Pharm. Res. 2010, 27, 2187-2196). In place of the bile salt extract employed in the original procedure (which extract is no longer available), the modified procedure uses a mixture of sodium taurochlorate (0.15 g), glycocholic acid (0.15 g), ursodeoxycholic acid (0.05 g), cholic acid (0.05 g), and glycodeoxycholic acid (0.05 g). These five bile acids are ground together with a mortar and pestle to produce a fine white powder that is incorporated into the FaSSCoF, as outlined below.
FaSSCoF medium: Tris(hydroxymethyl)aminomethane (Tris; 0.275 g) and maleic acid (0.44 g) are dissolved in water (35 mL) to give a solution whose pH is adjusted to 6.5 by treatment with 0.5M NaOH (ca. 12 mL). The solution is then made up to 50 mL with water. A portion of this Tris/maleate buffer solution (ca. 25 mL) is added to a 0.5 L round-bottomed flask, before being treated with 0.00565 g of the bile acid mixture described above. Solutions of phosphatidylcholine (0.0111 g) in DCM (0.15 mL) and palmitic acid (0.0013 g) in DCM (0.15 mL) are added, then the organic solvent is evaporated off under reduced pressure at 40° C. until a clear solution, with no perceptible DCM odour, is achieved. The volume of the evaporated solution is adjusted to 50 mL by addition of the remainder of Tris/maleate buffer, then BSA (0.115 g) is added, before being dissolved by gentle agitation.
Solubility Determination: Test compounds are suspended in the pH 6.5 FaSSCoF medium to give a maximum final concentration of 2-10 mg/mL. The suspensions are equilibrated at 25° C. for 24 h, before being filtered through a glass fibre C filter. The filtrates are then diluted as appropriate for injection and quantification by HPLC with reference to a standard. Different volumes of the standard, diluted and undiluted sample solutions are injected and the solubilities are calculated using the peak areas determined by integration of the peak found at the same retention time as the principal peak in the standard injection.

p38 MAPKα [2] = target: T1, p38 MAPKα (Homo sapiens (Human), UniProt Q16539); assay: p38 MAPKα enzyme inhibition (Method 2), Z-LYTE FRET; type: biochemical
Experimental: The enzyme inhibitory activities of the compound disclosed herein are determined by FRET using synthetic peptides labelled with both donor and acceptor fluorophores (Z-LYTE, Invitrogen Ltd., Paisley, UK).
The inhibitory activities of test compounds against the p38 MAPKα isoform (MAPK14: Invitrogen) are evaluated indirectly by determining the level of activation/phosphorylation of the down-stream molecule, MAPKAP-K2. The p38 MAPKα protein (80 ng/mL, 2.5 μL) is mixed with the test compound (2.5 μL of either 4 μg/mL, 0.4 μg/mL, 0.04 μg/mL or 0.004 μg/mL) for 2 hr at RT. […] The mixture is incubated for 1 hr at RT. Development reagent (protease, 5 μL) is added for 1 hr prior to detection in a fluorescence microplate reader (Varioskan® Flash, ThermoFisher Scientific). […]
In all cases, the site-specific protease cleaves non-phosphorylated peptide only and eliminates the FRET signal. Phosphorylation levels of each reaction are calculated using the ratio of coumarin emission (donor) over fluorescein emission (acceptor), for which high ratios indicate high phosphorylation and low ratios indicate low phosphorylation levels.

B-Raf = B-Raf (Homo sapiens (Human), UniProt P15056); assay: KINOMEscan binding of B-Raf to standard ligand
Text: (§1) These assays may be conducted by DiscoverX (formerly Ambit; San Diego, Calif.).

[3] = tested on: eyes of albino New Zealand White rabbits
[4] = Stability of pharmaceutical formulations (1 mg/mL solutions); type: physicochemical; details: 5° C.
Experimental: The samples were sonicated to achieve clear solutions having the following properties: Osmolality (mOsm/kg): 310 (Na), 314 (HCl); pH: 7.00 (Na), 7.05 (HCl). 0.5 mL of the stock solutions were diluted to 1 mL with 20% DMSO in water & injected for purity analysis by HPLC. The remaining stock solutions were then split into aliquots of 0.5 mL in HPLC vials, and stored at various conditions in duplicate. Samples were stored at 5 and 25° C., before being analysed by HPLC at 1, 2 and 4 weeks. Separate samples were stored at 40° C. and analysed at 4 weeks.

Jurkat cells = assay: Cell cytotoxicity assay (assay r); type: cell-based, human
Experimental: 1×10^5 Jurkat cells (immortalised human T lymphocytes) are added to the appropriate number of wells of a 96 well plate in 100 μL of media (RPMI supplemented with 10% foetal bovine serum). 1 μL of DMSO control (final concentration 1.0% v/v) or test compound (final concentration 20, 5 or 1 μg/mL) is added to the wells and incubated at 37° C., 5% CO2. After 24 hours, the plate is centrifuged at 1200 rpm for 3 minutes and the supernatant discarded. Cells are then resuspended in 150 μL (final concentration 7.5 μg/mL) of propidium iodide (PI) in PBS and incubated at 37° C., 5% CO2 for 15 minutes. After 15 minutes, cells are analysed by flow cytometry (BD accuri) using the FL3 window. The % viability is calculated as the % of cells that are PI negative in the test wells normalised to the DMSO control.

Lck = Lck (Homo sapiens (Human), UniProt P06239); assay: KINOMEscan dissociation constant, Lck; type: binding
Text: as §1

p38 MAPKα [5] = target: T1, p38 MAPKα; assay: KINOMEscan dissociation constant, p38 MAPKα; type: binding
Text: as §1

T1 sequence (Q16539 whole entry, looked up): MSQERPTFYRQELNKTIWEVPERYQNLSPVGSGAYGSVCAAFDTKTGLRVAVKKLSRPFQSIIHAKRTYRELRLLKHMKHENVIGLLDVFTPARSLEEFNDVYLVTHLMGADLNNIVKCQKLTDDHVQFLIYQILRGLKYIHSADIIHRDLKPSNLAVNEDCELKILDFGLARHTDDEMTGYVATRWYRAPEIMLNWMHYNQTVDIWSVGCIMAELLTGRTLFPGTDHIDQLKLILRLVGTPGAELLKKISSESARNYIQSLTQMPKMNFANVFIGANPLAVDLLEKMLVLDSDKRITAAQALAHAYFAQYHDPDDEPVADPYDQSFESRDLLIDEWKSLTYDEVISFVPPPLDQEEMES
Lck, sequence (P06239 whole entry): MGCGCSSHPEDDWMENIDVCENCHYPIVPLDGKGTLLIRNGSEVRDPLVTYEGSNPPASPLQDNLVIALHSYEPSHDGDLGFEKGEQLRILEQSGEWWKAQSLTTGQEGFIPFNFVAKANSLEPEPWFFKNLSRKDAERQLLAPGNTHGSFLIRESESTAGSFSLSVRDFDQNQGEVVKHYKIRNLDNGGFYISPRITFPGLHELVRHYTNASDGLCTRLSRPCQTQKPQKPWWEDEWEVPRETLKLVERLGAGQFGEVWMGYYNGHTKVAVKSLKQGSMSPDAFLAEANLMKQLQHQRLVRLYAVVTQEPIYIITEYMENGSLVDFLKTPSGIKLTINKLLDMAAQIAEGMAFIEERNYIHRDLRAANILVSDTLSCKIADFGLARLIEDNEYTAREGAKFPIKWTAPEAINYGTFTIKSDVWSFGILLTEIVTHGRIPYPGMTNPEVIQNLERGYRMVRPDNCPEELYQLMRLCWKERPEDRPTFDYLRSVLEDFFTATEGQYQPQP
B-Raf, sequence (P15056 whole entry): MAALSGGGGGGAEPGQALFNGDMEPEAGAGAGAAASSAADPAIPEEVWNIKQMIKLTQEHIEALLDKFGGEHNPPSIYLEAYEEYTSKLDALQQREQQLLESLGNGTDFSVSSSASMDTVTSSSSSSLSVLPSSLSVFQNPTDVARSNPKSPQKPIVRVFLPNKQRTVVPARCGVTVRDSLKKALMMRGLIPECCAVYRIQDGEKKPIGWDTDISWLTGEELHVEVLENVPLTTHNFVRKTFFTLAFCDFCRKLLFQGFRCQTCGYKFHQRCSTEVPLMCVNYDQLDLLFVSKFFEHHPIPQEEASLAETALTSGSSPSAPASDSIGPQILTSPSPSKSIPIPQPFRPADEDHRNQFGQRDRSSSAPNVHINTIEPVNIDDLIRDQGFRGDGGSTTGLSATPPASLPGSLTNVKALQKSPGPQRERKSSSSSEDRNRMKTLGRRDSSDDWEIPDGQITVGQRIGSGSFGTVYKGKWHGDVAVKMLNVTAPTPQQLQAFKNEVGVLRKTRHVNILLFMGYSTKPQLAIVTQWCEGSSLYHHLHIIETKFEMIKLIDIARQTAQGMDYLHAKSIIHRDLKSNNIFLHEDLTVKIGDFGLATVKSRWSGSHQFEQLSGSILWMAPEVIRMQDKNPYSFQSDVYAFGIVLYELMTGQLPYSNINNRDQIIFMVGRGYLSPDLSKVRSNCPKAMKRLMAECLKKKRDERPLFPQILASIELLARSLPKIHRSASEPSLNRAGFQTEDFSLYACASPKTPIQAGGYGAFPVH

COc1cc(Nc2cc(Oc3ccc(NC(=O)Nc4cc(C(C)(C)C)cc(NS(C)(=O)=O)c4OC)c4ccccc34)ccn2)ccc1C(=O)O [Example 1, 4-((4-((4-(3-(5-(tert-Butyl)-2-methoxy-3-(methylsulfonamido)phenyl)ureido)naphthalen-1-yl)oxy)pyridin-2-yl)amino)-2-methoxybenzoic acid]
solubility at 24 h ([1]; fasted-state simulated colonic fluid (FaSSCoF), 25 °C, fassgf or other biorelevant, thermodynamic from solid, pH 6.5, text summary, read-out: solubilities in the FaSSCoF medium at pH 6.5): > 0.01 mg/mL | solubility thermodynamic at 24 h ([1]; fasted-state simulated colonic fluid (FaSSCoF), 25 °C, pH 6.5, fassgf or other biorelevant, thermodynamic from solid, pH 6.5, 25° C., 24 h, read-out: pH 6.5 FaSSCoF Solubility Run 3): 0.01 mg/mL (≈ 14.3 µM) | pH 6.5 FaSSCoF Solubility Run 1 ([1]; pH 6.5, 25° C., 24 h): 0.016 mg/mL | pH 6.5 FaSSCoF Solubility Run 2 ([1]; pH 6.5, 25° C., 24 h): 0.018 mg/mL | pH 6.5 FaSSCoF Solubility Run 4 ([1]; pH 6.5, 25° C., 24 h): 0.011 mg/mL | IC50 (p38 MAPKα [2]): 11 nM | effect on the binding of B-Raf to its standard ligand (B-Raf): did not have any significant effect | ocular reactions compared with vehicle controls ([3]; Phase 1, one treatment day, 0.1 and 1.0 mg/mL): no differences in the frequency, severity and incidence | local tolerability of the formulations ([3]; Phase 1, single dosing day, 0.1 and 1.0 mg/mL): acceptable | local tolerability of the formulations ([3]; Phase 2, three consecutive treatment days, 0.1 and 1.0 mg/mL): acceptable without any aggravation | effects on body weight and food consumption ([3]; rabbits, ocular 0.1 and 1.0 mg/mL, four daily instillations): no effects on body weight, nor on food consumption | stability in solution [4]: stable | % Viability at 1 μg/mL (Jurkat cells; 1 μg/mL, 24 hours): 94.6% | % Viability at 5 μg/mL (Jurkat cells; 5 μg/mL, 24 hours): 96.1% | % Viability at 20 μg/mL (Jurkat cells; 20 μg/mL, 24 hours): 95.8% | cytotoxicity compared with Reference Compound (Jurkat cells; assay (r)): substantially less cytotoxic than the Reference Compound | Kd (Lck): 4.2 nM | Kd (p38 MAPKα [5]): 2.8 nM
